From patent EP3502102A1, “STING INHIBITORS” (ECOLE POLYTECHNIQUE FEDERALE DE LAUSANNE (EPFL), priority 2017, dated 2019)
Positions count from the first letter of the chain named.

Tests used:
[1] = biological target: T1, hsSTING (Homo sapiens, UniProt Q86WV6); assay: Gel-based analysis of C-176-22 labelling in HEK293T cells expressing human STING; assay type: binding; conditions: HEK293T cells that expressed human STING
T1 construct: expressed in transfected cells; host or cells: HEK293T
Method: (§1) Reporter activity was measured 16 h after compound treatment. A nonlinear regression analysis was performed. […] Cytokine levels were normalized to DMSO-treated control cells. […] Nuclei were stained with DAPI. […] Depicted genes were measured by RT-qPCR. […] 16 h later Luciferase activity was measured. […] Flag-STING was immunoprecipitated and analysed by autoradiography.
HEK293T cells expressing Flag-STING were incubated with C-176-22 (0.25 µM) in serum free media, collected in PBSs and lysed by repetitive freezing and thawing. […] In-gel fluorescence was visualized using Fusion FX (Vilber Lourmat) and analysed by Fusion capt advance acquisition software.
We next sought to elucidate the molecular details of the interaction between C-178 and the TM part of STING. […] Having verified that C-176-22 is still active (Fig. 7), HEK293T cells expressing STING were exposed to C-176-22, lysed, coupled to a tetramethylrhodamine (TAMRA-)azide tag and C-176-22-modified proteins were visualized using in-gel fluorescence scanning. […]

[2] = biological target: T2, STING (Mus musculus, UniProt Q3TBT3); assay: IFN-beta luciferase reporter in HEK293T cells transfected with STING, alone or with a cyclic dinucleotide synthase; assay type: cell-based; set-up: expressed in transfected cells; host or cells: HEK293T; conditions: HEK293T transfected with mmSTING, 16 h
T2 sequence (Q3TBT3 1-378): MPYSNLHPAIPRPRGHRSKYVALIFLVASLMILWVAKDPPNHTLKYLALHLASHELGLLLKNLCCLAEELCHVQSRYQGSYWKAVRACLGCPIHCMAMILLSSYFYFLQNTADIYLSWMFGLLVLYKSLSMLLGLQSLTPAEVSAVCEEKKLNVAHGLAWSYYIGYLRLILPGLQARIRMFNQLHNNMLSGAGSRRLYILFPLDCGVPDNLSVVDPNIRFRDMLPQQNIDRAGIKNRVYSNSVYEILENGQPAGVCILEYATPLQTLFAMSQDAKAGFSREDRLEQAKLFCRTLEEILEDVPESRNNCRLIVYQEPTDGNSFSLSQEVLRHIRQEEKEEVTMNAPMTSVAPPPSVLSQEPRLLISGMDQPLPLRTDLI
Method: as §1
HEK293T cells expressing murine STING with an N-terminal mCherry-tag ^28 were transfected using GeneJuice (Millipore) with a construct encoding for cyclic di-GMP synthase in conjunction with an IFN-• firefly luciferase reporter plasmid. 3 h after transfection cells were seeded in […] (Corning) coated with library compounds. For each compounds, a 40 nl volume was selected to obtain a concentration of 10 µM in the assay plates. The amount of DMSO in each well was normalised to 0.1%. After overnight treatment, cells were lysed in lysis buffer (25 mM Tris-phosphate (pH 7.8), 2 mM DTT, 2 mM 1,2-diaminocyclohexane-N,N,N',N'-tetraacetic acid, 10% glycerol, 1% Triton® X-100) for 20 min followed by the addition of firefly luciferase. Reporter activity was measured using a Tecan Infinite plate reader. The screen was performed using on ∼ 20.000 compounds from a chemically diverse compound collection available at the BSF core facility at EPFL.
In these cells, transient transfection of vectors encoding for cyclic di-GMP synthase (cdG-Syn) and an IFN-• reporter leads to robust induction of firefly luciferase activity. We used this system to perform a high-throughput chemical screen with a library of ∼ 20.000 small molecule compounds (Fig. 6b). To increase the selectivity of candidate compounds against the STING pathway, hits from the primary screen were counter-screened for their effect on RIG-I-driven activation of the IFN-• reporter. […] To further validate the two small molecules, we treated wild-type HEK293T cells with C-178 and C-176, in which STING was either expressed alone or in conjunction with cdG-Syn. […] We next conducted a limited structure-activity relationship (SAR) analysis. Since both C-178 and C-176 share a characteristic nitrofuran moiety, we prepared analogues of C-176/8 in which this structural motif was substituted (Fig. 1c).

[3] = biological target: T3, mmSTING (Mus musculus, UniProt Q3TBT3); assay: Gel-based analysis of C-176-22 labelling (click chemistry, in-gel fluorescence) in HEK293T cells; assay type: binding; conditions: HEK293T expressing STING
T3 construct: expressed in transfected cells; host or cells: HEK293T (lentiviral transduction, induced overnight)
T3 sequence (Q3TBT3 1-378): T2 sequence (Q3TBT3 1-378)
Method: as §1
(§2) HEK293T cells expressing Flag-STING were incubated with C-176-22 (0.25 µM) in serum free media, collected in PBSs and lysed by repetitive freezing and thawing. 43 µl of lysed cells were treated with freshly prepared "click reagent" mixture containing tris(benzyltriazolylmethyl)amine (TBTA) (3 µl/sample, 3 mM in 1:4 DMSO:t-ButOH), tetramethylrhodamine (TAMRA) azide (2 µl/sample, 1.25 mM in DMSO), and freshly prepared CuSO4 (1 µl/sample) and tris-(2-carboxyethyl)phosphine hydrochloride (TCEP) (1µl/sample) and incubated at room temperature for 1 h. The reaction was quenched by addition of reducing sample buffer. In-gel fluorescence was visualized using Fusion FX (Vilber Lourmat) and analysed by Fusion capt advance acquisition software.
(§3) We next sought to elucidate the molecular details of the interaction between C-178 and the TM part of STING. Our SAR studies highlighted the importance of the nitrofuran motif for the activity of the discovered inhibitors. Given the strong electrophilic potential of this group, we suspected that C-178 might react with a TM residue generating a covalent interaction. […] To further test the hypothesis of covalent engagement of STING, we synthesized a derivative of C-176-22, which bears an alkyne group amenable for copper-catalyzed azide alkyne cycloaddition (Click Chemistry) and performed gel-based profiling studies (Fig. 3d). Having verified that C-176-22 is still active (Fig. 7), HEK293T cells expressing STING were exposed to C-176-22, lysed, coupled to a tetramethylrhodamine (TAMRA-)azide tag and C-176-22-modified proteins were visualized using in-gel fluorescence scanning. HEK293T cells without STING served as a control for assessing non-specific protein labelling. […] Based on the observed mass shift, we postulate a nitrobenzyl rearrangement-like reaction to generate covalent bonding between C-178 and STING (see below). […] We next sought to identify the residue through which C-178 achieves binding to STING. Among the naturally occurring amino acids, cysteine residues are well-known targets of electrophilic small molecules. […] In addition, binding to and inhibition of STING are two separable functions of C-178.

[4] = test system: mmSTING; assay: as above; assay type: binding, mouse; conditions: for labelling of STING mutant: 0.25 µM; for labelling of other protein targets / proteome-wide selectivity: whole cell lysate, C-176-22 0.25µM
Method: as §1, §2, §3

[5] = biological target: T4, mmSTING (Mus musculus, UniProt Q3TBT3, V27A); assay: as above; assay type: binding; conditions: STING V27A; 0.25 µM
T4 construct: expressed in transfected cells; host or cells: HEK293T (lentiviral transduction, induced overnight)
T4 sequence (Q3TBT3 1-378 V27A): T2 sequence (Q3TBT3 1-378) with V27A
Method: as §1, §2, §3

T1 sequence (Q86WV6 whole entry): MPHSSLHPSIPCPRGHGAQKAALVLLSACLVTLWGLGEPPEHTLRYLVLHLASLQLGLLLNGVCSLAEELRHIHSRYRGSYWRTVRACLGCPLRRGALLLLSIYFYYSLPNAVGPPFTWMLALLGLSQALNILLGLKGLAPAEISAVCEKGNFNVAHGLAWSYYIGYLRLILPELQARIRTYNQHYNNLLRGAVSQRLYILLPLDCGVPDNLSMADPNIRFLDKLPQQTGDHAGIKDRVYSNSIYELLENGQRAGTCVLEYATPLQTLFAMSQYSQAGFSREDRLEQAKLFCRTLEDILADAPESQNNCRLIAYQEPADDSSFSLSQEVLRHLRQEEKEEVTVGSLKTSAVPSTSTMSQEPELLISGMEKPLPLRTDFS

C#Cc1ccc(NC(=O)c2ccc([N+](=O)[O-])o2)cc1 [C-176-22]
labelling of human STING [1]: hardly detectable, if at all
inhibitory activity, IFN-• luciferase reporter [2]: still active
inhibitory activity, IFN-• luciferase reporter ([2]; listed as C176L): inhibitory active
labelling of STING, in-gel fluorescence signal (37 kDa) [3]: marked, dose-dependent signal
labelling band in cells without STING ([4]; HEK293T cells that lacked STING expression): not detectable
labelling of STING mutant ([4]; cysteine-to-alanine or cysteine-to-serine mutation at position 91): completely abolished
labelling of STING mutant ([4]; mutated C88): did not influence
labelling of other protein targets / proteome-wide selectivity [4]: negligible labelling
labelling of other protein targets / proteome-wide selectivity ([4]; listed as C176L): highly specifically labels mmSTING
labelling of STING mutant [5]: efficiently interacted
